Test results: patent US8530465B2, “1, 2-disubstituted amido-anthraquinone derivatives, preparation method and application thereof” (National Defense Medical Center, priority 2010, dated 2013)

How the values were obtained:
H1299 = experiment: MTT assay, PhTERT-SEAP (H1299); type: cell-based, human; conditions: H1299; for cell toxicity activity: low concentration (1 μM)
Description: (§1) Further, cells were subjected to MTT assay to compare the relative toxicity or effect of each compound on cell proliferation and activity.
(§2) The above-described cells are cultured in a 96-well plate, to which was added with 25 μl MTT solution, and cultured in a 37° C. carbon dioxide incubator for 4 hours. Then, 100 μl Lysis buffer is added and incubated in a 37° C. carbon dioxide incubator overnight. An ELISA reader (Bio-Rad Model 450) is used to read optical density (O.D.) at 550 nm.

[1] = MTT assay, PhTERT-SEAP (H1299); type: cell-based, human; conditions: human, H1299 cells carrying the PhTERT-SEAP reporter, PhTERT-SEAP (H1299); for viability at 1 μM: Conc. 1 μM, read-out: Relative MTT viability (%); for viability at 10 μM: Conc. 10 μM; for viability at 10 μM / viability at 100 μM: read-out: Relative MTT viability (%) (converted); for viability at 100 μM: Conc. 100 μM
Description: as §1, §2

hTERT = experiment: Secreted alkaline phosphatase (SEAP) assay, PhTERT-SEAP (H1299); type: cell-based; conditions: Homo sapiens, 24 hours; for activity at 1 µM: NCI-H1299, Conc. 1 μM, read-out: Relative SEAP activity (%); for activity at 10 µM: NCI-H1299, Conc. 10 μM; for activity at 10 µM / activity at 100 µM: read-out: Relative SEAP activity (%) (converted); for activity at 100 µM: NCI-H1299, Conc. 100 μM
Description: H1299 were grown in RPMI 1640 media supplemented with 10% fetal bovine serum, 100 units/mL penicillin and […] streptomycin in a humidified atmosphere with 5% CO2 at 37° C. Culture media were changed every three days. To establish stable cell lines that the expression of hTERT could be monitored by a reporter system, a about 3.3 kbp DNA fragment ranging from −3338 to +1 bp of the hTERT gene (hTERT promoter, PhTERT) was subcloned upstream to a secreted alkaline phosphatase gene (SEAP) and transfected into H1299 by electroporation. The stable clones were selected using G418. The stable clones derived from H1299 were cultured using conditions that are similar to their parental cells.
Secreted alkaline phosphatase was used as the reporter system to monitor the transcriptional activity of hTERT. Here, about 10^4 cells each were grown in 96-well plates and incubated at 37° C. for 24 hours and changed with fresh media. Varying amounts of drugs were added and cells were incubated for another 24 hours. Culture media were collected and heated at 65° C. for 10 min to inactivate heat-labile phosphatases. An equal amount of SEAP buffer (2 M diethanolamine, 1 mM MgCl2, and 20 mM L-homoarginine) was added to the media and p-nitrophenyl phosphate was added to a final concentration of 12 mM. Absorptions at 405 nm were taken, and the rate of absorption increase is determined (the increasing rate of absorbance at 405 nm was used to represent the activity of SEAP).

With O=C(CCl)Nc1ccc2c(c1NC(=O)CCl)C(=O)c1ccccc1C2=O [CC-01, 1,2-bis-(chloroacetamido)-anthraquinone] the melting point was 254 to 255 °C, the “cell toxicity / inhibitory activity compared with mitoxantrone and doxorubicin” value (H1299; SEAP and MTT analysis) was “higher cell toxicity activity than mitoxantrone and doxorubicin” and the viability at 1 μM [1] was 8.1 ± 3.87%. For the same compound, the activity at 1 µM (hTERT) was 15.9 ± 1.06%, the activity at 10 µM (hTERT) was 13.7% and the activity at 100 µM (hTERT) was 13.7%.

For CC(Cl)C(=O)Nc1c(NC(=O)CCl)ccc2c1C(=O)c1ccccc1C2=O (centres unmarked) [CC-06, 1-[(2-chloropropanyl)amido]-2-(chloroacetamido)-anthraquinone], the melting point was 175 to 176 °C, the “cell toxicity / inhibitory activity compared with mitoxantrone and doxorubicin” value (H1299; SEAP and MTT analysis) was “higher cell toxicity activity than mitoxantrone and doxorubicin” and the viability at 1 μM [1] was 9.01 ± 1.66%. For the same compound, the activity at 1 µM (hTERT) was 12.1 ± 0.44%, the activity at 10 µM (hTERT) was 1.04% and the activity at 100 µM (hTERT) was 2.38%.

In the case of O=C(CCl)Nc1ccc2c(c1NC(=O)c1cccc(F)c1)C(=O)c1ccccc1C2=O [CC-14, 1-(3-fluorobenzamido)-2-(chloroacetamido)-anthraquinone], the melting point is reported as 197 to 198 °C, the “cell toxicity / inhibitory activity compared with mitoxantrone and doxorubicin” value (H1299; SEAP and MTT analysis) is reported as “inhibitory activity even better than mitoxantrone and doxorubicin” and the cell toxicity activity (H1299) is reported as “very strong cell toxicity activity”. For the same compound, the viability at 1 μM [1] was 18.3 ± 13.5%, the viability at 10 μM [1] was 8.06% and the activity at 1 µM (hTERT) was 26.9 ± 11.6%. For the same compound, the activity at 10 µM (hTERT) was 1.77% and the activity at 100 µM (hTERT) was 0.97%.

With O=C(CCl)Nc1ccc2c(c1NC(=O)c1ccc(F)cc1)C(=O)c1ccccc1C2=O [CC-15, 1-(4-fluorobenzamido)-2-(chloroacetamido)-anthraquinone] the melting point was 184 to 185 °C, the “cell toxicity / inhibitory activity compared with mitoxantrone and doxorubicin” value (H1299; SEAP and MTT analysis) was “inhibitory activity even better than mitoxantrone and doxorubicin” and the cell toxicity activity (H1299) was “very strong cell toxicity activity”. For the same compound, the viability at 1 μM [1] was 10.9 ± 2.92%, the viability at 10 μM [1] was 4.2% and the activity at 1 µM (hTERT) was 11.9 ± 9.77%. It also gave an activity at 10 µM (hTERT) of 2.58% and an activity at 100 µM (hTERT) of 0.52%.

In the case of O=C(CN1CCN(c2ccccc2)CC1)Nc1ccc2c(c1NC(=O)c1ccccc1)C(=O)c1ccccc1C2=O [CC-33, 1-(benzamido)-2-[2-(4-phenylpiperazino)acetylamino]-anthraquinone], the melting point is reported as 225 to 226 °C, the cell toxicity (H1299; 1 μM, 10 μM, and 100 μM) is reported as “no significant cell toxicity” and the viability at 1 μM [1] is reported as 86.3 ± 2.6%. For the same compound, the viability at 10 μM [1] was 110 ± 8.53%, the viability at 100 μM [1] was 88 ± 6.32% and the activity at 1 µM (hTERT) was 85.9 ± 8.01%. The activity at 10 µM (hTERT) was 97.9 ± 4.82% and the activity at 100 µM (hTERT) was 89.6 ± 3.37%.

For Cc1ccc(C(=O)Nc2c(NC(=O)CN3CCN(CCO)CC3)ccc3c2C(=O)c2ccccc2C3=O)cc1 [CC-44, 1-(4-methylbenzamido)-2-[2-(4-(2-hydroxyethyl)piperazino]acetylamino]-anthraquinone], the melting point was 210 to 211 °C, the “inhibitory activity among compounds CC-35 to CC-50” value (H1299; SEAP and MTT analysis) was “higher inhibitory activity” and the viability at 1 μM [1] was 71.5 ± 5.12%. It also gave a viability at 10 μM [1] of 44.8%, an activity at 1 µM (hTERT) of 77 ± 9.13% and an activity at 10 µM (hTERT) of 8.09%. It also gave an activity at 100 µM (hTERT) of -1.24%.

In the case of Cc1ccc(C(=O)Nc2c(NC(=O)CN3CCN(c4ccccc4C#N)CC3)ccc3c2C(=O)c2ccccc2C3=O)cc1 [CC-47, 1-(4-methylbenzamido)-2-[2-[4-(2-cyanophenyl)piperazino]acetylamino]-anthraquinone], the melting point is reported as 238 to 239 °C, the viability at 1 μM [1] is reported as 72 ± 11.1% and the viability at 10 μM [1] is reported as 60.1%. It also gave a viability at 100 μM [1] of 48.2%, an activity at 1 µM (hTERT) of 81 ± 9.56% and an activity at 10 µM (hTERT) of 74.2%. For the same compound, the activity at 100 µM (hTERT) was 20.8%.

COc1ccccc1N1CCN(CC(=O)Nc2ccc3c(c2NC(=O)c2ccc(C)cc2)C(=O)c2ccccc2C3=O)CC1 [CC-48, 1-(4-methylbenzamido)-2-[2-[4-(2-methoxyphenyl)piperazino]acetylamino]-anthraquinone] showed a melting point of 215 to 216 °C, a viability at 1 μM [1] of 76.4 ± 3.95% and a viability at 10 μM [1] of 78.3%. For the same compound, the viability at 100 μM [1] was 22.7%, the activity at 1 µM (hTERT) was 83.3 ± 2.81% and the activity at 10 µM (hTERT) was 68.3%. It also gave an activity at 100 µM (hTERT) of 12.2%.

In the case of Cc1ccc(C(=O)Nc2c(NC(=O)CN3CCN(c4ccccn4)CC3)ccc3c2C(=O)c2ccccc2C3=O)cc1 [CC-49, 1-(4-methylbenzamido)-2-[2-[4-(2-pyridyl)piperazino]acetylamino]-anthraquinone], the melting point is reported as 258 to 259 °C, the viability at 1 μM [1] is reported as 105 ± 3.65% and the viability at 10 μM [1] is reported as 100%. The viability at 100 μM [1] was 6.46%, the activity at 1 µM (hTERT) was 97.1 ± 7.43% and the activity at 10 µM (hTERT) was 64.3%. It also gave an activity at 100 µM (hTERT) of 9.96%.

Cc1ccc(C(=O)Nc2c(NC(=O)CN3CCN(c4ncccn4)CC3)ccc3c2C(=O)c2ccccc2C3=O)cc1 [CC-50, 1-(4-methylbenzamido)-2-[2-[4-(2-pyrimidinyl)piperazino]acetylamino]-anthraquinone] showed a melting point of 267 to 268 °C, a viability at 1 μM [1] of 102 ± 5.76% and a viability at 10 μM [1] of 91.5%. The viability at 100 μM [1] was 59%, the activity at 1 µM (hTERT) was 87.1 ± 7.97% and the activity at 10 µM (hTERT) was 79.5%. The activity at 100 µM (hTERT) was 20%.
